According to PubChem BioAssay (NCI):
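Step 1: Grow cells in 96-well plates. Step 2: Expose to compound for 48 hours at 5 concentrations. Step 3: Interpolate endpoints linearly; if unreached, use highest concentration. TGI: total growth inhibition.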

Columns and labels:
Assay in all cases: NCI tumour cell line growth inhibition, 48 h
K-562 leukemia = tested on: K-562 leukemia
LOX IMVI melanoma = tested on: LOX IMVI melanoma
MDA-MB-435 = tested on: MDA-MB-435
NCI-H460 lung = tested on: NCI-H460 lung
SK-MEL-28 melanoma = tested on: SK-MEL-28 melanoma

Row | Structure (SMILES) | TGI (K-562 leukemia) [µM] | TGI (LOX IMVI melanoma) [µM] | TGI (MDA-MB-435) [µM] | TGI (NCI-H460 lung) [µM] | TGI (SK-MEL-28 melanoma) [µM]
1 | Cc1c(C#N)c2nnn(-c3ccc([N+](=O)[O-])cc3)c(=O)n2c1-c1ccccc1 | 30.6 | 22 | 42.9 | 26.5 | 79.7
2 | Cc1ccc(S(=O)(=O)Nc2nc3ccccc3c(=O)n2C2CCCCC2)cc1 | > 100 | > 100 | > 100 | > 100 | > 100
3 | c1ccc2c(c1)nc1n2CCNC1 | > 100 | > 100 | > 100 | > 100 | > 100
4 | C/C=C1/CN2[C@@H](C3=C[C@@H]4[C@@H]5N(C3=O)c3ccccc3[C@@]53CCN5C/C(=C/C)[C@@H]4C[C@H]53)C[C@@]34c5ccccc5N5C(=O)CC=C([C@H]1C[C@H]23)[C@H]54 | 50 | – | 14.1 | 15.4 | 3.91
5 | c1nncn1C12C3C4C5C3C1C5C42 (stereo not drawn) | > 100 | > 100 | > 100 | > 100 | > 100
6 | Cc1ccc(S(=O)(=O)N(CC(O)c2ccccc2)c2ccccc2F)cc1 (stereo not drawn) | 44.5 | 31.5 | 32.9 | 32.5 | 33.1
7 | OC12C3C4CC5C(C4[C@@H]1Br)C2[C@@](O)(c1c(F)c(F)c(F)c(F)c1F)C53 (stereo partly drawn) | 61.5 | > 100 | > 100 | > 100 | > 100
8 | N#CN=C1c2ccccc2C(=NC#N)c2cc(CO)ccc21 | 80.7 | > 100 | 80.3 | > 100 | > 100
9 | CCN(CC)c1ccc2c(c1)Oc1ccc(N(C(C)=O)c3ccccc3)cc1C21OC(=O)c2ccccc21 (stereo not drawn) | > 100 | > 100 | > 100 | > 100 | > 100
10 | O=C1C=C(N2CCCC2)C(=O)c2c(O)ccc(O)c21 | > 10 | > 10 | > 1 | > 10 | > 10
11 | NC(Cc1ccccc1)=NCC(=O)O | > 100 | > 100 | > 100 | > 100 | > 100
12 | Cc1ccc(C2(N3CCCC3)OC(C)(C)c3cccc4cccc2c34)cc1 (stereo not drawn) | > 100 | 29.3 | 28 | 26.3 | –
13 | O=S(=O)(O)c1ccc2c(N=Nc3ccccc3)c(O)c(S(=O)(=O)O)cc2c1 | > 100 | – | > 100 | > 100 | > 100
14 | CCN(CC)c1ccc(/C=c2\nc(-c3ccccc3)n3c2nc2ccccc23)cc1 | > 100 | 26.4 | 48.8 | > 100 | –
15 | CC(C)=CCC/C(=C\CC/C(=C\CCc1ccoc1)C(=O)O)C(=O)O | > 100 | > 100 | > 100 | – | > 100
16 | Cc1ccc(C(=O)Cc2nc3ncccc3[nH]c2=O)cc1 | > 100 | – | 39.8 | > 100 | 87.4
17 | O=C1c2cc([N+](=O)[O-])cnc2S(=O)(=O)N1c1ccc(Br)cc1 | – | > 100 | > 100 | > 100 | > 100
